Source: patent US20260364184A1, “COMPOUND BASED ON OXOISOINDOLINYL-SUBSTITUTED TETRAHYDROPYRIMIDINE-DIONE AND USE THEREOF” (GLUETACS THERAPEUTICS (SHANGHAI) CO., LTD., priority 2023, published 2026)
Where two headings read alike, the source gives them in different places.

Key:
[1] = tested on: Human lung cancer cell line (H292); assay: Inhibition of H292 cell proliferation (CellTiter luminescent viability); type: cell-based; conditions: 96 hours; for inhibition at 0.01 µM: H292, 10 nM, read-out: Inhibition Rate at 10 nM (%); for inhibition at 0.5 µM: H292, 500 nM, read-out: Inhibition Rate at 500 nM (%)
Method: (§1) The tumor cells used herein were cultured in a cell culture medium listed in table 3 at 37 °C in an incubator with 5% CO2. Prior to experimentation, all cell lines used were correctly identified by STR profiling, and tested negative for mycoplasma contamination using a mycoplasma detection kit through routine screenings.
(§2) The IC50 values of the compounds of the present disclosure (including the compounds in Table 1, Table 2, and Examples 1-468) were determined using the CellTiter-Meiluncell Luminescent Cell Viability Assay Kit from Dalian Meilun Biotech Co., Ltd. The detailed procedure is as follows: Tumor cells were seeded in 96-well cell culture plates at the densities specified in Table 4. On the following day, the test compounds of the present disclosure were subjected to serial dilution. The dilution can be performed according to one of the following two methods: • (1) The first dilution method: The test compounds of the present disclosure (including the compounds in Table 1, Table 2, and Examples 1-468) were subjected to 5-fold serial dilutions starting from a highest concentration of 2000 μM, resulting in a total of 9 concentrations from high to low (2000, 400, 80, 16, 3.2, 0.64, 0.128, 0.0256, 0.00512 μM). Subsequently, 0.5 μL of the test compound dilution was transferred into the 96-well plate containing the cells, with each well containing 100 μL of cell culture medium. […] Into the 96-well plate, the diluted test compounds and corresponding detection reagents were added, resulting in final test compound concentrations of 500 nM and 10 nM, respectively. The experimental procedure is described below using the diluted 2 μM test compound as an example.
(§3) 0.5 μL of the aforementioned diluted compound of the present disclosure (including the compounds in Table 1, Table 2, and Examples 1-468) was added to the seeded cells in 100 μL of medium, yielding a final test compound concentration of 10 nM. After the cells were treated with the compounds of the present disclosure for a specified period, the cell viability assay reagent was added to the culture medium according to the kit's instructions to determine cell viability. […] All controls were treated using the same procedure as the compounds of the present disclosure. The growth inhibition curves for the compounds of the present disclosure were plotted using Prism GraphPad software, and the IC50 values were calculated therefrom.

[2] = tested on: Human myeloid monocytic leukemia cell line (MV-4-11); assay: Inhibition of MV-4-11 cell proliferation (CellTiter luminescent viability); type: cell-based; conditions: Homo sapiens, MV4-11, 96 hours; for inhibition at 0.01 µM: MV-4-11, 10 nM, read-out: Inhibition Rate at 10 nM (%); for inhibition at 0.5 µM: MV-4-11, 500 nM, read-out: Inhibition Rate at 500 nM (%)
How it was run: (§4)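 Cells are seeded in 96-well plates, cultured at 37 °C, 5% CO2, and treated next day with 5-fold serial compound dilutions (stock series from 2000 μM; 0.5 μL into 100 μL medium). Viability is read by CellTiter-Meiluncell luminescence after the set exposure, and IC50 is taken from growth-inhibition curves.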

[3] = tested on: Human Multiple myeloma cell line (MM.1S); assay: Inhibition of MM.1S cell proliferation (CellTiter luminescent viability); type: cell-based; conditions: Homo sapiens, MM1.S, Table IJ1, Tau inhibitor-based, 96 hours
How it was run: as §4

[4] = molecular target: T1, human Cereblon WT GST-tagged protein (CRBN) (Homo sapiens, UniProt Q96SW2); assay: CRBN binding by HTRF (Cereblon binding kit)
T1 construct: purchased CISBIO 64BDCRBNPEH
Method: The CEREBLON BINDING kits (specification: 10,000 tests; product number: Catalog #64BDCRBNPEH; CISBIO company) was used to determine the CRBN binding ability of the compounds to be tested through a HTRF method (homogeneous time-resolved fluorescence). The specific methods are as follows: • 1. According to the instructions of the CEREBLON BINDING KITS, serial dilutions were performed for the test compounds of the present disclosure (including the compounds in Table 1, Table 2, and Examples 1-468) and for lenalidomide. Specifically, diluent #9 (1×) solution was used as the diluent, and multiple concentration gradients were set. The dilution operation can be performed according to one of the following two methods: • (1) The first dilution method: The test compounds of the present disclosure (including the compounds in Table 1, Table 2, and Examples 1-468) were subjected to 5-fold serial dilutions starting from a highest concentration of 40 μM, resulting in a total of 7 concentrations from high to low (40, 8, 1.6, 0.32, 0.064, 0.0128, 0.00256 μM). Subsequently, the diluted test compounds and corresponding detection reagents were added to each well of a 96-well plate, resulting in final test compound concentrations of 10, 2, 0.4, 0.08, 0.016, 0.0032, and 0.00064 μM, respectively. • (2) As an alternative, a second dilution method can be used: The test compounds of the present disclosure (including the compounds in Table 1, Table 2, and Examples 1-468) were subjected to 4-fold gradient dilutions starting from a highest concentration of 8 μM, resulting in 2 concentrations (8 μM, 2 μM). Into the 96-well plate, the diluted test compounds and corresponding detection reagents were added, resulting in final test compound concentrations of 2 μM and 0.5 μM, respectively. The experimental procedure is described below using the diluted 8 μM test compound and lenalidomide solutions as examples. • 2. 2.5 μL of the above 8 μM of the tested compounds and lenalidomide solution, as well as the same volume of diluent #9 (1×) solution (solvent control group, Std0) were added to each well of a 96-well plate, respectively. Then, 2.5 μL of human Cereblon WT GST-tagged protein solution was added to each well. Finally, 5 μL of the thoroughly mixed Thalidomide-Re reagent and GST Eu antibody working solution were added to each of the aforementioned wells. The final concentration of the tested compounds and lenalidomide in each well was 2 μM. • 3. The blank control wells were sequentially added with 2.5 μL of diluent #9 (1×) solution, 2.5 μL of PROTAC binding buffer, and 5 μL of thoroughly mixed Thalidomide-Re reagent and GST Eu antibody working solution. • 4. After sealing and incubating the solutions in the aforementioned wells at room temperature for 3 hours, the absorbance values at emission wavelengths of 620 nm and 665 nm were detected by the HTRF method using a Spark microplate reader (V3.1 SP1).
The corresponding CRBN binding inhibition rate was calculated using the following method:
Rcompound=OD 665 nmcompound/OD 620 nmcompound−OD 665 nmcontrol/OD 620 nmcontrol
RStd0=OD 665 nmStd0/OD 620 nmStd0−OD 665 nmcontrol/OD 620 nmcontrol inhibition rate (%)=(1−Rcompound/RStd0)*100
Note: OD 665 nmcompound is the absorbance value of each well of the compounds to be tested of the present disclosure at an emission wavelength of 665 nm. OD 620 nmcompound is the absorbance value of each well of the compounds to be tested of the present disclosure at an emission wavelength of 620 nm. OD 665 nmcontrol is the absorbance value of the blank control well at an emission wavelength of 665 nm. OD 620 nmcontrol is the absorbance value of the blank control well at an emission wavelength of 620 nm. OD 665 nmStd0 is the absorbance value of the solvent control well at an emission wavelength of 665 nm. OD 620 nmStd0 is the absorbance value of the solvent control well at an emission wavelength of 620 nm.

[5] = tested on: Human diffuse large B-cell lymphoma cell line (TMD8); assay: Inhibition of TMD8 cell proliferation (CellTiter luminescent viability); type: cell-based; conditions: Homo sapiens, TMD8, 96 h, Table IJ3, Tau inhibitor-based
Method: as §1, §2, §3

[6] = NCI-H292, Table IE2, CDK4/6 inhibitor-based
[7] = Table IE3, CDK4/6 inhibitor-based
[8] = NCI-H292, Table IM1, CDK9 inhibitor-based

T1 sequence (Q96SW2 whole entry): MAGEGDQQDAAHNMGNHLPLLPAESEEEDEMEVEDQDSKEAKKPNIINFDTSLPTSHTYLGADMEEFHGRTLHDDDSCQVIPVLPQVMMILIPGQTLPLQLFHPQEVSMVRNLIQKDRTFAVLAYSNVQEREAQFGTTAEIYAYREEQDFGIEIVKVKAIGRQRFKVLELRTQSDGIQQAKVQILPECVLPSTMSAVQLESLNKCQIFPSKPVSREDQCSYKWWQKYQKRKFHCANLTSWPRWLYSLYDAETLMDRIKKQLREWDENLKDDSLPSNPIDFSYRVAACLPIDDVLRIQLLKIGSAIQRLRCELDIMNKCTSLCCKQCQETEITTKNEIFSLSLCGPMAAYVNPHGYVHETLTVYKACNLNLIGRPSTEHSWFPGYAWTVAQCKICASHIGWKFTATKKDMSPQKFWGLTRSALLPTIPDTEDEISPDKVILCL

Row | SMILES | inhibition at 0.01 µM [1, 6] [%] | inhibition at 0.5 µM [1, 6] [%] | inhibition at 0.01 µM [2, 7] [%] | inhibition at 0.5 µM [2, 7] [%] | inhibition at 0.01 µM [1, 8] [%] | inhibition at 0.5 µM [1, 8] [%] | further results
1 | CN(C)C(=O)c1cc2cnc(Nc3ccc(N4CCC(CN5CCN(c6cccc7c6C(=O)N(N6CCC(=O)NC6=O)C7=O)CC5)CC4)cn3)nc2n1C1CCCC1 [GT-05202, 7-cyclopentyl-2-((5-(4-((4-(2-(2,4-dioxotetrahydropyrimidin-1(2H)-yl)-1,3-dioxoisoindolin-4-yl)piperazin-1-yl)methyl)piperidin-1-yl)pyridin-2-yl)amino)-N,N-dimethyl-7H-pyrrolo[2,3-d]pyrimidine-6-carboxamide] | 35 to 40 | 35 to 40 | 15 to 20 | 40 to 60 | – | – | –
2 | CN(C)C(=O)c1cc2cnc(Nc3ccc(N4CCN(Cc5ccc6c(c5)CN(N5CCC(=O)NC5=O)C6=O)CC4)cn3)nc2n1C1CCCC1 [GT-06335, 7-cyclopentyl-2-((5-(4-((2-(2,4-dioxotetrahydropyrimidin-1(2H)-yl)-1-oxoisoindolin-5-yl)methyl)piperazin-1-yl)pyridin-2-yl)amino)-N,N-dimethyl-7H-pyrrolo[2,3-d]pyrimidine-6-carboxamide] | 35 to 40 | 30 to 35 | 10 to 15 | 40 to 60 | – | – | –
3 | CC(=O)c1c(C)c2cnc(Nc3ccc(N4CCC(N5CCN(Cc6ccc7c(c6)C(=O)N(N6CCC(=O)NC6=O)C7=O)CC5)CC4)cn3)nc2n(C2CCCC2)c1=O [GT-06583, 5-((4-(1-(6-((6-acetyl-8-cyclopentyl-5-methyl-7-oxo-7,8-dihydropyrido[2,3-d]pyrimidin-2-yl)amino)pyridin-3-yl)piperidin-4-yl)piperazin-1-yl)methyl)-2-(2,4-dioxotetrahydropyrimidin-1(2H)-yl)isoindoline-1,3-dione] | 35 to 40 | 40 to 60 | 40 to 60 | 40 to 60 | – | – | –
4 | Cn1ncc(-c2nc(NC3CCN(CC4CCN(c5ccc6c(c5)C(=O)N(N5CCC(=O)NC5=O)C6=O)CC4)CC3)ncc2Cl)c1CC1CC1 [GT-08346, 5-(4-((4-((5-chloro-4-(5-(cyclopropylmethyl)-1-methyl-1H-pyrazol-4-yl)pyrimidin-2-yl)amino)piperidin-1-yl)methyl)piperidin-1-yl)-2-(2,4-dioxotetrahydropyrimidin-1(2H)-yl)isoindoline-1,3-dione] | – | – | – | – | 0 to 5 | 50 to 60 | –
5 | N#CC1(CNc2cccc(-c3cc(NC4CCN(CC5CCN(c6ccc7c(c6)C(=O)N(N6CCC(=O)NC6=O)C7=O)CC5)CC4)ncc3Cl)n2)CCOCC1 [GT-08348, 4-(((5′-chloro-2′-((1-((1-(2-(2,4-dioxotetrahydropyrimidin-1(2H)-yl)-1,3-dioxoisoindolin-5-yl)piperidin-4-yl)methyl)piperidin-4-yl)amino)-[2,4′-bipyridin]-6-yl)amino)methyl)tetrahydro-2H-pyran-4-carbonitrile] | – | – | – | – | -5 to 0 | 30 to 40 | –
6 | N#CC1(CNc2cccc(-c3cc(NC4CCN(CC5CCN(c6cccc7c6C(=O)N(N6CCC(=O)NC6=O)C7=O)CC5)CC4)ncc3Cl)n2)CCOCC1 [GT-08349, 4-(((5′-chloro-2′-((1-((1-(2-(2,4-dioxotetrahydropyrimidin-1(2H)-yl)-1,3-dioxoisoindolin-4-yl)piperidin-4-yl)methyl)piperidin-4-yl)amino)-[2,4′-bipyridin]-6-yl)amino)methyl)tetrahydro-2H-pyran-4-carbonitrile] | – | – | – | – | 15 to 20 | 20 to 30 | –
7 | Cn1c2ccncc2c2ccc(-c3cnc(N4CCN(Cc5ccc6c(c5)CN(N5CCC(=O)NC5=O)C6=O)CC4)c(C(F)(F)F)c3)cc21 [GT-08539, 1-(5-((4-(5-(5-methyl-5H-pyrido[4,3-b]indol-7-yl)-3-(trifluoromethyl)pyridin-2-yl)piperazin-1-yl)methyl)-1-oxoisoindolin-2-yl)dihydropyrimidine-2,4 (1H,3H)-dione] | – | – | – | – | – | – | inhibition at 0.01 µM ([3]; 10 nM, read-out: Inhibition Rate at 10 nM (%)): 20 to 30%; inhibition at 0.5 µM ([3]; 500 nM, read-out: Inhibition Rate at 500 nM (%)): 60 to 70%; inhibition at 0.5 µM ([4]; 0.5 μM, read-out: Inhibition Rate at 0.5 μM (%)): 20 to 30%; inhibition at 2 µM ([4]; 2 μM, read-out: Inhibition Rate at 2 μM (%)): 60 to 80%; inhibition at 0.01 µM ([5]; TMD8, 10 nM, read-out: Inhibition Rate at 10 nM (%)): 20 to 30%; inhibition at 0.5 µM ([5]; TMD8, 500 nM, read-out: Inhibition Rate at 500 nM (%)): 60 to 70%; inhibition at 0.01 µM ([2]; Table IJ2, Tau inhibitor-based): 30 to 40%; inhibition at 0.5 µM ([2]; Table IJ2, Tau inhibitor-based): 50 to 60%
